Test results taken from BindingDB's records for doi:10.1021/jm030115o (Johnson and Johnson Pharmaceutical Research and Development, 2003).

assay: Inhibition of Glycogen synthase kinase-3beta (GSK3-beta)

Row | Compound | IC50
1 | O=C1NC(=O)C2=C1c1cn(c3ncccc13)CCOCCOCCOCCOCCn1cc2c2cccnc21 [17,20,23,26-tetraoxa-4,12,14,29,31-pentaazahexacyclo[27.6.1.17,14.02,6.08,13.030,35]heptatriaconta-1(36),2(6),7(37),8,10,12,30,32,34-nonaene-3,5-dione] | 48 nM
2 | O=C1NC(=O)C2=C1c1cn(c3ccccc13)CCOCCOCCn1cc2c2ccccc21 [17,20-dioxa-4,14,23-triazahexacyclo[21.6.1.17,14.02,6.08,13.024,29]hentriaconta-1(30),2(6),7(31),8,10,12,24,26,28-nonaene-3,5-dione] | 136 nM
3 | O=C1NC(=O)C2=C1c1cn(c3ncccc13)CCOCCOCCOCCn1cc2c2cccnc21 [17,20,23-trioxa-4,12,14,26,28-pentaazahexacyclo[24.6.1.17,14.02,6.08,13.027,32]tetratriaconta-1(33),2(6),7(34),8,10,12,27,29,31-nonaene-3,5-dione] | 34 nM

More lines, in order of falling IC50, values ahead:

Row | IC50 | Compound
4 | 620 nM | O=C1NC(=O)C2=C1c1cn(c3ncccc13)CCOCCOCCn1cc2c2cccnc21 [17,20-dioxa-4,12,14,23,25-pentaazahexacyclo[21.6.1.17,14.02,6.08,13.024,29]hentriaconta-1(30),2(6),7(31),8,10,12,24,26,28-nonaene-3,5-dione]
5 | 403 nM | O=C1NC(=O)C2=C1c1cn(c3ncccc13)CCOCCOCCOCCOCCOCCn1cc2c2cccnc21 [17,20,23,26,29-pentaoxa-4,12,14,32,34-pentaazahexacyclo[30.6.1.17,14.02,6.08,13.033,38]tetraconta-1(39),2(6),7(40),8,10,12,33,35,37-nonaene-3,5-dione]
6 | 138 nM | O=C1NC(=O)C2=C1c1cn(c3ccccc13)CCOCCOCCn1cc2c2cccnc21 [17,20-dioxa-4,12,14,23-tetraazahexacyclo[21.6.1.17,14.02,6.08,13.024,29]hentriaconta-1(30),2(6),7(31),8,10,12,24,26,28-nonaene-3,5-dione]
7 | 51 nM | O=C1NC(=O)C2=C1c1cn(c3ccccc13)CCOCCOCCOCCOCCOCCn1cc2c2ccccc21 [17,20,23,26,29-pentaoxa-4,14,32-triazahexacyclo[30.6.1.17,14.02,6.08,13.033,38]tetraconta-1(39),2(6),7(40),8,10,12,33,35,37-nonaene-3,5-dione]
8 | 26 nM | O=C1NC(=O)C2=C1c1cn(c3ccccc13)CCOCCOCCOCCOCCn1cc2c2ccccc21 [17,20,23,26-tetraoxa-4,14,29-triazahexacyclo[27.6.1.17,14.02,6.08,13.030,35]heptatriaconta-1(36),2(6),7(37),8,10,12,30,32,34-nonaene-3,5-dione]
